Values joined by “and” are separate entries in the source; they are usually repeats but may differ in a detail not shown here. Equal entries are not always repeated.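 Assay format: 96-well plates, 48-hour exposure. Abbreviation: GI50, concentration required for 50% inhibition of growth. TGI denotes the concentration required for complete inhibition of growth.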

Among the test systems are EKVX NSCLC; HOP-62 NSCLC; HT29 colon; KM12 colon; MALME-3M melanoma; MCF7 breast; MOLT-4 leukemia; SF-539 CNS; SR leukemia; SK-OV-3 ovarian.
Test in all cases: NCI tumour cell line growth inhibition, 48 h

`COc1cccc2c(=O)c3c(sc12)c(NCCN(C)C)nc1ccccc13`: the GI50 in the test on EKVX NSCLC is 1.51 µM; in the test with HOP-62 NSCLC, 1.2 µM; in the test on HT29 colon, 0.648 µM; with KM12 colon, 1.59 µM; in the test on MALME-3M melanoma, 1.83 µM; in the test with MCF7 breast, 1.25 µM. Moreover, the GI50 in the test on MOLT-4 leukemia is 0.398 µM; in the test on SF-539 CNS, 1.61 µM; in the test on SR leukemia it was 0.612 µM. Further, the TGI in the test with EKVX NSCLC worked out at 2.99 µM; in the test on HOP-62 NSCLC, 2.66 µM; in the test with HT29 colon it was 2.12 µM; in the test on KM12 colon, 3.1 µM; in the test with MALME-3M melanoma it was 3.59 µM; with MCF7 breast, 2.7 µM. For the same molecule, the values for the TGI in the test with MOLT-4 leukemia, in the test on SF-539 CNS and in the test on SR leukemia were 1.66 µM, 3.01 µM and 2.45 µM, respectively.
On to `CCCN(CCC)C(=O)[C@H](CC)[C@@H]1CC[C@@H](C)[C@@H]([C@H](C)[C@@H](O)[C@@H](C)C(=O)[C@H](CC)C2O[C@]3(C=C[C@@H](O)[C@]4(CC[C@@](C)([C@H]5CC[C@](O)(CC)[C@H](C)O5)O4)O3)[C@H](C)C[C@@H]2C)O1` (stereo partly specified), for which the GI50 in the test on EKVX NSCLC is 2.59 µM; in the test on HOP-62 NSCLC, 3.33 µM; in the test on HT29 colon, 3.1 µM; with KM12 colon, 1.86 µM; with MALME-3M melanoma it was 1.72 µM; with MCF7 breast it was 2.46 µM. Further, the GI50 in the test on MOLT-4 leukemia was 2.39 µM; in the test with SF-539 CNS, 2.06 µM; with SK-OV-3 ovarian, 3.29 µM; with SR leukemia, 2.49 µM. The TGI in the test with EKVX NSCLC came to 11.7 µM; in the test with HOP-62 NSCLC, 13.6 µM; in the test with HT29 colon, 12.7 µM; with KM12 colon, 4.02 µM; in the test with MALME-3M melanoma, 3.71 µM; in the test on MCF7 breast it was 7.76 µM. In addition, the TGI in the test on MOLT-4 leukemia was 6.41 µM; with SF-539 CNS, 4.2 µM; in the test with SK-OV-3 ovarian, 19.9 µM; in the test with SR leukemia it was 7.35 µM.
In the case of `CN(C)c1ccc(O)c2c1C[C@H]1C[C@H]3[C@H](N(C)C)C(=O)C(C(N)=O)=C(O)[C@@]3(O)C(=O)C1=C2O`, the GI50 was 6.7 µM with EKVX NSCLC; 4.01 µM with HOP-62 NSCLC; 10.2 µM with HT29 colon; 6.29 µM in the test with KM12 colon; 7.51 µM in the test on MALME-3M melanoma; 10.1 µM in the test with MCF7 breast. For the same molecule, the GI50 in the test on MOLT-4 leukemia is 10.7 µM; in the test with SF-539 CNS, 3.88 µM; in the test with SK-OV-3 ovarian it was 3.92 µM; in the test with SR leukemia it was 3.48 µM. The TGI with EKVX NSCLC is over 100 µM; in the test on HOP-62 NSCLC, 71.5 µM; in the test on HT29 colon, over 100 µM; in the test with KM12 colon, 27.4 µM; with MALME-3M melanoma it was 33.3 µM; with MCF7 breast it was over 100 µM. Also, the TGI in the test on MOLT-4 leukemia is 40.6 µM; in the test on SF-539 CNS, 15.5 µM; in the test with SK-OV-3 ovarian it was over 100 µM; with SR leukemia, 22.3 µM.
With `Cc1ccc(S(=O)(=O)Nc2nc3ccccc3nc2Nc2ccc3nsnc3c2)cc1`, the GI50 in the test with EKVX NSCLC is 4.03 µM and 3.6 µM; in the test with HOP-62 NSCLC, 5.36 µM and 5.68 µM; with HT29 colon, 6.78 µM and 3.1 µM; in the test with KM12 colon, 4.3 µM; in the test with MALME-3M melanoma, 2.18 µM and 1.34 µM; with MCF7 breast it was 6.55 µM and 4.6 µM. The GI50 in the test on MOLT-4 leukemia was 4.3 µM and 3.61 µM; in the test with SF-539 CNS, 4.9 µM and 5.13 µM; with SK-OV-3 ovarian it was 4.76 µM; in the test with SR leukemia it was 7.87 µM and 4.49 µM. Besides, the TGI with EKVX NSCLC was over 100 µM; with HOP-62 NSCLC, 35.6 µM and > 100 µM; in the test with HT29 colon, over 100 µM; in the test on KM12 colon it was over 100 µM; in the test on MCF7 breast, over 100 µM; in the test on MOLT-4 leukemia, 34.9 µM and > 100 µM. Further, the TGI was 61.3 µM and > 100 µM in the test on SF-539 CNS; over 100 µM with SK-OV-3 ovarian; 95.4 µM and > 100 µM in the test on SR leukemia.
Turning to `CSC1C(=O)c2ccccc2/C(=N/Nc2nc3ccccc3s2)C1C` (stereo unspecified), the GI50 was 8.44 µM in the test on EKVX NSCLC; 14.4 µM with HOP-62 NSCLC; 18.7 µM with KM12 colon; 5.52 µM in the test on MCF7 breast; 12.5 µM with SF-539 CNS; 35.2 µM in the test with SK-OV-3 ovarian. For the same molecule, in the test with SR leukemia, the GI50 was 0.843 µM. Moreover, the TGI was 18.4 µM with EKVX NSCLC; over 50 µM with HOP-62 NSCLC; over 50 µM in the test on KM12 colon; 34.7 µM in the test on MCF7 breast; 21.8 µM with SF-539 CNS; over 50 µM in the test with SK-OV-3 ovarian. Also, the TGI in the test on SR leukemia amounted to 2.52 µM.
For the molecule `C=C1CC[C@@H]2[C@](C)(COC(C)=O)[C@H](OC(C)=O)CC[C@@]2(C)[C@@H]1C/C=C1/C(=O)OC[C@H]1OC(C)=O`, the GI50 is 12.9 µM with EKVX NSCLC; 4.4 µM in the test with HOP-62 NSCLC; 10.5 µM in the test on KM12 colon; 2.98 µM in the test with MALME-3M melanoma; 1.83 µM with MCF7 breast; 3.8 µM with MOLT-4 leukemia. Besides, the GI50 in the test with SF-539 CNS was 1.7 µM; in the test on SK-OV-3 ovarian, 19.1 µM; in the test on SR leukemia, 2.59 µM. Moreover, the TGI in the test on EKVX NSCLC came out at 25.6 µM; with HOP-62 NSCLC, 21.4 µM; with KM12 colon it was 27.7 µM; with MALME-3M melanoma, 7.95 µM; in the test on MCF7 breast, 6.79 µM; in the test with MOLT-4 leukemia, 16.1 µM. The TGI in the test on SF-539 CNS was 3.22 µM; with SK-OV-3 ovarian, 36.3 µM; in the test with SR leukemia, 10.1 µM.
On to `Cc1nn(-c2nc3ccccc3[nH]2)c2c1C(c1ccc3c(c1)OCO3)CC(=O)N2` (stereo unspecified), for which the GI50 with HOP-62 NSCLC is 2.38 µM; with HT29 colon it was 3.01 µM; in the test with KM12 colon, 2.33 µM; with MALME-3M melanoma it was 2.12 µM; with MCF7 breast, 2.98 µM; in the test on MOLT-4 leukemia, 0.0422 µM. In addition, the GI50 is 2.16 µM with SF-539 CNS, 2.63 µM in the test with SK-OV-3 ovarian and 2.82 µM in the test on SR leukemia. The TGI was 5.21 µM in the test on HOP-62 NSCLC; over 23.6 µM with HT29 colon; 5.45 µM in the test with KM12 colon; 6.04 µM in the test on MALME-3M melanoma; over 30.1 µM with MCF7 breast; 0.214 µM with MOLT-4 leukemia. Also, the TGI is 4.82 µM in the test on SF-539 CNS, 5.77 µM with SK-OV-3 ovarian and over 24.9 µM in the test on SR leukemia.
Take `O=C(CN1C(=O)c2ccccc2C1=O)C(O)CN1C(=O)c2ccccc2C1=O` (stereo unspecified): the TGI is over 100 µM in the test on EKVX NSCLC; 41.9 µM in the test with HOP-62 NSCLC; over 100 µM in the test with HT29 colon; over 100 µM with KM12 colon; over 100 µM in the test on MCF7 breast; over 100 µM in the test with MOLT-4 leukemia. Further, the TGI with SF-539 CNS, in the test with SK-OV-3 ovarian and in the test on SR leukemia was over 100 µM in each case.

For the origin of these results see PubChem BioAssay (NCI).
